{"source": "patent US4260551A", "about": "“Polyprenyl derivatives” (Sankyo Company Limited, priority 1979, dated 1981)", "key": {"[1]": {"tested_on": "male mice (ddY strains), reserpine ulcer", "assay": "Anti-reserpine ulcer activity", "format": "in vivo", "conditions": "Mus musculus, ip, 18 h, i.p., 5 mice, reserpine 10 mg/kg s.c., read-out: Inhibitory Ratio (ulcer area)", "description": "The test was carried out in accordance with the method described by C. Blackmann, D. S. Campion and F. N. Fastier in British Journal of Pharmacology and Chemotherapy, vol. 14, 112 (1959), which is as follows:\nThe test compound was intraperitoneally administered to male mice (ddY strains, body weight: 28-33 g), and, 30 minutes later, reserpine was subcutaneously administered in the dose of 10 mg/kg. After 18 hours from the reserpine administration, the animal was sacrificed, and the stomach was isolated. This stomach was inflated with 2 ml of 0.5% formalin and was fixed. Then, the stomach was opened by cutting along the greater curvature, and the ulcer area*^(1) was measured with a stereoscopic microscope. The ulcer areas of the treated group and the control group were compared, and the inhibitory ratios were calculated.\n*(1) ulcer area (mm^2): sum of each ulcer area (longitude×latitude).\nThe anti-reserpine ulcer activity shown when the test compound was intraperitoneally administered is set out in Table 1."}, "[2]": {"tested_on": "male rats (Donryu strain), stress ulcer", "assay": "Anti-stress ulcer activity (restraint-immersion)", "format": "in vivo, rat", "conditions": "for Ulcer index: control 22.3", "description": "The test was carried out in accordance with the method described by K. takagi and S. Okabe in The Japanese Journal of Pharmacology, vol. 18, 9 (1968), which is as follows:\nMale rats (Donryu strain, body weight: 200-220 g) were placed under restraint in a stress cage and immersed vertically in the water bath kept at 23°±1° C. to the height of the xiphoid of the animal. After restraint-immersion for 8 hours, the animals were sacrificed. The stomach was fixed with formalin and measured in its ulcer index *^(2). The ulcer indices of the treated group and the control group were compared, and the inhibitory ratios were calculated. The test compound was orally administered for 3 days prior to and immediately before the restraint-immersion.\n*(2) ulcer index (mm): sum of the length of each linear ulcer.\nThe anti-stress ulcer activity shown when the test compound was orally administered is set out in Table 2."}, "[3]": {"tested_on": "male rats (Donryu strain), cysteamine duodenal ulcer", "assay": "Anti-cysteamine duodenal ulcer activity", "format": "in vivo, rat", "conditions": "for Duodenal ulcer index: score 0-5, control 2.45", "description": "The test was carried out in accordance with the method described by H. Selye and S. Szabo in Nature, vol. 244, 458 (1973), which is as follows. Male rats (Donryu strain, body weight: 200-220 g) had been fasted overnight, were orally treated with 300 mg/kg of cysteamine to induce duodenal ulcer. The test compounds were orally administered four times, that is, for two days prior to, immediately before and on the day next to the treatment of cysteamine. The animals were killed two days after the treatment of cysteamine, and the duodenal ulcer index*^(3) was determined. The duodenal ulcer indices of the treated group and the control group were compared, and the inhibitory ratios were calculated. |^(*3) Duodenal ulcer index: Ulcer of each animal was |scored according to the |following criteria. |0: no lesion |1: hemorrhagic spots |2: product of longitudinal and latitudinal diameters |(S) ≤ 16 mm^2 |3: product of longitudinal and latitudinal diameters |(S) ≤ 16 mm^2, 16 < (s) ≤ 25 |4: product of longitudinal and latitudinal diameters |(S) ≤ 16 mm^2, (s) > 25 mm^2 |5: perforated ulcer The anti-cysteamine duodenal ulcer activity shown when the compound was orally administered is set out in Table 3."}, "[4]": {"tested_on": "ddY strain male mouse", "assay": "Acute toxicity, ddY strain male mouse", "format": "in vivo", "conditions": "5,000 mg/kg orally given", "source_text": "(§1) The acute toxicity of the compound A is set out in Table 4."}, "[5]": {"tested_on": "Donryu strain male rat", "assay": "Acute toxicity, Donryu strain male rat", "format": "in vivo", "conditions": "1,000 mg/kg orally given", "source_text": "as §1"}, "[6]": {"conditions": "Arch. int. Pharmacodyn., 1964, 147, 113; cited from earlier work"}, "[7]": {"conditions": "100 mg/kg/day × 4, p.o., Compound A marked *significant inhibition, probability less than 0.05"}, "[8]": {"conditions": "300 mg/kg/day × 4, p.o., Compound A marked *significant inhibition, probability less than 0.05"}}, "data": [{"smiles": "CC(C)=CCC/C(C)=C/CC/C(=C/CC/C(C)=C/CO)CO", "note": "[Compound A, (E,Z,E)7-hydroxymethyl-3,11,15-trimethyl-2,6,10,14-hexadecatetraen-1-ol]", "values": [{"measurement": "inhibition in vivo at 100 mg/kg", "setting": "[1]", "value": 68.4, "unit": "%"}, {"measurement": "Inhibitory ratio (ulcer index)", "setting": "[2]; 10 mg/kg/day × 4, p.o.", "value": 17}, {"measurement": "Ulcer index", "setting": "[2]; 10 mg/kg/day × 4, p.o.", "value": 18.5, "unit": "mm"}, {"measurement": "Inhibitory ratio (ulcer index)", "setting": "[2]; 30 mg/kg/day × 4, p.o., *significant inhibition, probability less than 0.05", "value": 37}, {"measurement": "Ulcer index", "setting": "[2]; 30 mg/kg/day × 4, p.o.", "value": 13.8, "unit": "mm"}, {"measurement": "Inhibitory ratio (ulcer index)", "setting": "[2]; [7]", "value": 43}, {"measurement": "Ulcer index", "setting": "[2]; 100 mg/kg/day × 4, p.o.", "value": 12.7, "unit": "mm"}, {"measurement": "Inhibitory ratio (duodenal ulcer index)", "setting": "[3]; 100 mg/kg/day × 4, p.o.", "value": 18}, {"measurement": "Duodenal ulcer index", "setting": "[3]; 100 mg/kg/day × 4, p.o.", "value": 2.00}, {"measurement": "Inhibitory ratio (duodenal ulcer index)", "setting": "[3]; [8]", "value": 34}, {"measurement": "Duodenal ulcer index", "setting": "[3]; 300 mg/kg/day × 4, p.o.", "value": 1.56}, {"measurement": "Death/Survival", "setting": "[4]", "value": "0/5"}, {"measurement": "Death/Survival", "setting": "[5]", "value": "0/5"}]}, {"smiles": "CC(C)=CCC/C(C)=C/CCC(=CCC/C(C)=C/CO)CO", "note": "[Compound B, (E,Z,E) & (E,E,E)7-hydroxymethyl-3,11,15-trimethyl-2,6,10,14-hexadecatetraen-1-ol]", "values": [{"measurement": "inhibition in vivo at 100 mg/kg", "setting": "[1]", "value": 65, "unit": "%"}]}, {"smiles": "CC(C)=CCC/C(C)=C/CCC(=CCCC(C)=CCO)CO", "note": "[Compound C, (E,Z,E), (E,E,E), (Z,Z,E) & (Z,E,E)7-hydroxymethyl-3,11,15-trimethyl-2,6,10,14-hexadecatetraen-1-ol]", "values": [{"measurement": "inhibition in vivo at 100 mg/kg", "setting": "[1]", "value": 59, "unit": "%"}]}, {"smiles": "CC(=O)OC/C=C(\\C)CC/C=C(/CC/C=C(\\C)CCC=C(C)C)COC(C)=O", "note": "[Compound D, (E,Z,E)7-hydroxymethyl-3,11,15-trimethyl-2,6,10,14-hexadecatetraen-1-ol diacetate]", "values": [{"measurement": "inhibition in vivo at 127 mg/kg", "setting": "[1]", "value": 54.2, "unit": "%"}]}, {"smiles": "CC(C)=CCC/C(C)=C/CC/C(=C/CC/C(C)=C/COC(=O)c1ccccc1)COC(=O)c1ccccc1", "note": "[Compound E, (E,Z,E)7-hydroxymethyl-3,11,15-trimethyl-2,6,10,14-hexadecatetraen-1-ol dibenzoate]", "values": [{"measurement": "inhibition in vivo at 171 mg/kg", "setting": "[1]; 171 mg/kg", "value": 64.5, "unit": "%"}]}, {"smiles": "CCCCCCCCCCCC(=O)OC/C=C(\\C)CC/C=C(/CC/C=C(\\C)CCC=C(C)C)COC(=O)CCCCCCCCCCC", "note": "[Compound F, (E,Z,E)7-hydroxymethyl-3,11,15-trimethyl-2,6,10,14-hexadecatetraen-1-ol dilaurate]", "values": [{"measurement": "inhibition in vivo at 220 mg/kg", "setting": "[1]; 220 mg/kg", "value": 63.3, "unit": "%"}]}, {"smiles": "COC/C=C(\\C)CC/C=C(/CC/C=C(\\C)CCC=C(C)C)COC", "note": "[Compound G, (E,Z,E)7-hydroxymethyl-3,11,15-trimethyl-2,6,10,14-hexadecatetraen-1-ol dimethyl ether]", "values": [{"measurement": "inhibition in vivo at 109 mg/kg", "setting": "[1]; 109 mg/kg", "value": 45, "unit": "%"}]}, {"smiles": "CC(C)=CCC/C(C)=C/CC/C(=C\\CC/C(C)=C/CO)CO", "note": "[Compound H, (E,E,E)7-hydroxymethyl-3,11,15-trimethyl-2,6,10,14-hexadecatetraen-1-ol]", "values": [{"measurement": "inhibition in vivo at 100 mg/kg", "setting": "[1]", "value": 57, "unit": "%"}]}, {"smiles": "CC(=O)OC/C=C(\\C)CC/C=C(\\CC/C=C(\\C)CCC=C(C)C)COC(C)=O", "note": "[Compound I, (E,E,E)7-hydroxymethyl-3,11,15-trimethyl-2,6,10,14-hexadecatetraen-1-ol diacetate]", "values": [{"measurement": "inhibition in vivo at 127 mg/kg", "setting": "[1]", "value": 64.5, "unit": "%"}]}, {"smiles": "CC(C)=CCC/C(C)=C/CC/C(=C\\CC/C(C)=C\\CO)CO", "note": "[Compound J, (Z,E,E)7-hydroxymethyl-3,11,15-trimethyl-2,6,10,14-hexadecatetraen-1-ol]", "values": [{"measurement": "inhibition in vivo at 100 mg/kg", "setting": "[1]", "value": 49.4, "unit": "%"}]}, {"smiles": "CC(C)=CCC/C(C)=C\\CCC(=CCC/C(C)=C/CO)CO", "note": "[Compound K, (E,Z,Z) & (E,E,Z)7-hydroxymethyl-3,11,15-trimethyl-2,6,10,14-hexadecatetraen-1-ol]", "values": [{"measurement": "inhibition in vivo at 100 mg/kg", "setting": "[1]", "value": 58.7, "unit": "%"}]}, {"smiles": "CC(C)=CCCC(=CCCC(C)=CCC/C(C)=C/CO)CO", "note": "[Compound L, (E,E,E), (E,Z,E), (E,E,Z) & (E,Z,Z)11-hydroxymethyl-3,7,15-trimethyl-2,6,10,14-hexadecatetraen-1-ol]", "values": [{"measurement": "inhibition in vivo at 100 mg/kg", "setting": "[1]", "value": 55.3, "unit": "%"}]}, {"smiles": "CC(C)=CCCC(=CCC/C(C)=C/CO)CO", "note": "[Compound M, (E,Z) & (E,E)7-hydroxymethyl-3,11-dimethyl-2,6,10-dodecatrien-1-ol]", "values": [{"measurement": "inhibition in vivo at 77.8 mg/kg", "setting": "[1]; 77.8 mg/kg", "value": 60.1, "unit": "%"}]}, {"smiles": "C/C(=C\\CC/C(C)=C/CCC(=CCC/C(C)=C/CO)CO)CO", "note": "[Compound N, 7,15-Dihydroxymethyl-3,11-dimethyl-2,6,10,14-hexadecatetraen-1-ol]", "values": [{"measurement": "inhibition in vivo at 105 mg/kg", "setting": "[1]; 105 mg/kg", "value": 64.5, "unit": "%"}]}, {"smiles": "CC(C)=CCC/C(C)=C/CCC(C)=CCCC(=CCC/C(C)=C/CO)CO", "note": "[Compound O, 7-Hydroxymethyl-3,11,15,19-tetramethyl-2,6,10,14,18-eicosapentaen-1-ol]", "values": [{"measurement": "inhibition in vivo at 122 mg/kg", "setting": "[1]; 122 mg/kg", "value": 74.2, "unit": "%"}]}, {"smiles": "CC(=O)OC/C=C(\\C)CCC=C(CCC=C(C)CC/C=C(\\C)CCC=C(C)C)COC(C)=O", "note": "[Compound P, 7-Hydroxymethyl-3,11,15,19-tetramethyl-2,6,10,14,18-eicosapentaen-1-ol diacetate]", "values": [{"measurement": "inhibition in vivo at 150 mg/kg", "setting": "[1]; 150 mg/kg", "value": 45.7, "unit": "%"}]}, {"smiles": "CC(C)=CCC/C(C)=C/CCC(C)=CCCC(=CCC/C(C)=C/COC(=O)c1ccccc1)COC(=O)c1ccccc1", "note": "[Compound Q, 7-Hydroxymethyl-3,11,15,19-tetramethyl-2,6,10,14,18-eicosapentaen-1-ol dibenzoate]", "values": [{"measurement": "inhibition in vivo at 193 mg/kg", "setting": "[1]; 193 mg/kg", "value": 56.2, "unit": "%"}]}, {"smiles": "CC(C)=CCCC(C)=CCCC(C)=CCCC(=O)OC/C=C(\\C)CCC=C(C)C", "note": "[Gefarnate, geranyl farnesylacetate, reference compound]", "values": [{"measurement": "inhibition in vivo at 100 mg/kg", "setting": "[1]", "value": 10, "unit": "%"}, {"measurement": "Inhibitory ratio (ulcer index)", "setting": "[2]; [7]", "value": -13}, {"measurement": "Ulcer index", "setting": "[2]; 100 mg/kg/day × 4, p.o.", "value": 25.3, "unit": "mm"}, {"measurement": "Inhibitory ratio (ulcer index)", "setting": "[2]; 300 mg/kg/day × 4, p.o.", "value": -57}, {"measurement": "Ulcer index", "setting": "[2]; 300 mg/kg/day × 4, p.o.", "value": 35.0, "unit": "mm"}, {"measurement": "Inhibitory ratio (duodenal ulcer index)", "setting": "[3]; [8]", "value": 10}, {"measurement": "Duodenal ulcer index", "setting": "[3]; 300 mg/kg/day × 4, p.o.", "value": 2.20}, {"measurement": "anti-ulcer activity", "setting": "[6]", "value": "has an anti-ulcer activity"}]}, {"smiles": "NC(=O)CC[C@H](N)C(=O)O", "note": "[L-Glutamine, reference compound]", "values": [{"measurement": "Inhibitory ratio (duodenal ulcer index)", "setting": "[3]; 1000 mg/kg/day × 4, p.o.", "value": 31}, {"measurement": "Duodenal ulcer index", "setting": "[3]; 1000 mg/kg/day × 4, p.o.", "value": 1.70}]}]}
